A short description of data set [1]: tensiometry: critical aggregate concentration (CAC) and surface tension. As to conditions: for Surface tension at CAC: H2O/5.0 % EtOH. The class given is physicochemical. In outline: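 Surface tension measured by tensiometry across increasing self-associating amphiphile concentrations. CAC taken as the concentration beyond which further increase no longer lowers surface tension and higher-order aggregates form instead.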

Data set [2] in a line: metabolic stability in liver microsomes. In kind it is in vitro ADME, mouse. As to conditions: for microsomal CLint at 1 µM: read-out: in vitro CLint; for half-life at 1 µM: read-out: in vitro t1/2; for CLint scaled at 1 µM: liver microsomes, read-out: Scale-up CLint. On the procedure:
(§1) Metabolic stability was assessed in mouse and rat liver microsomes. Microsomes are subcellular fractions of hepatocytes and contain CYP450s, the predominant enzymes involved in first-pass metabolism.[66] […] A plasma protein binding assay was performed to assess the extent of compound binding to plasma proteins. This is key as only unbound compound is free to distribute and exert a pharmacological effect. […] To assess the potential for this sub-class of SSAs to be developed as drugs for oral administration, Caco-2 permeability assays were also performed, as a cellular model indicative of human intestinal permeability.
Section 3: Biological methods […]
In vitro Absorption, Distribution and Metabolism
These studies were performed by Contract Research Organisation (CRO) Pharmaron. The methodology provided within the ESI is published within the express permission of this organisation. The percentage of a compound recovered during the analysis process should be 100 %; any deviation from this value indicates experimental limitations such as unintended potential non-specific binding events to experimental equipment, solubility issues, etc.
Metabolic Stability in Rat and Mouse Liver Microsomes:
The metabolic stability of compounds at a concentration of 1 µM, in rat and mouse liver […]
/ mL) in the presence and absence of cofactor (NADPH) at 37 °C. Aliquots of each incubation were removed at 0.5, 5, 15, 30 and 60 minutes. The reaction was stopped by the addition of 5 volumes of cold acetonitrile containing analytical internal standard (IS).
Samples were then centrifuged at 3 °C, 220 g for 40 minutes to remove cell debris. The supernatant was aliquoted and added to ultra-pure H2O in a 1:1 ratio in preparation for LC- […]
Samples were analysed using a Shimadzu liquid chromatography system coupled to a Triple Quad 6500+ mass spectrometry (AB Inc.) Separation of compounds was achieved using an HSS T3 column (50 x 2.1 mm) at a temperature of 40 °C and a binary mobile phase gradient […]
at a flow rate of 0.7 mL/min. […]
acid in water) and 5 % solvent B (0.1 % formic acid in acetonitrile). […]
solvent B at 0.7 minutes, held for 0.5 minutes and then immedi ately returned to initial conditions. Sample analysis was by electrospray ionisation. […]
For orientation: Liver microsomes are vesicles of endoplasmic reticulum, rich in cytochrome P450 enzymes.

Data set [3] can be described thus: bi-directional permeability in Caco-2 cell line. In kind it is in vitro ADME, human. As to conditions: human; for efflux ratio at 2 h / recovery at 2 h: Caco-2, pH 7.4, Caco-2; for Papp A→B at 2 h / Papp B→A at 2 h: Caco-2, pH 7.4, Caco-2, 5 or 10 µM, HBSS pH 7.4, 2 hours. How it is done: as §1, with “permeability. […]” for “permeability.”
Sample analysis was by electrospray ionisation. […]
Bi-directional Permeability in Caco-2 Cell Line:
The bi-directional permeability in Caco-2 cell lines was determined by seeding cells onto an HTS Transwell plate. Cells were cultivated for 14-18 days in a cell culture incubator at 37 °C, 5 % CO2, 95 % relative humidity. Cell culture medium was replaced every other day. To assess monolayer integrity the transepithelial electrical resistance (TEER) across the monolayer was measured using Millicell Epithelial volt-ohm meter prior to assay and Lucifer yellow (LY) fluorescence measurement post-assay.
Test and control compounds were prepared in DMSO and diluted in Hank’s Balanced Saline […]
Solution (HBSS, pH 7.4) to a final concentration of 5 or 10 µM. Compound was added to the […]
donor compartment of the transwell plate for both apical to basolateral (A>B) and basolateral […]
to apical (B>A) measurements, with blank HBSS being added to the receiver compartment.
The transwell plate was then incubated at 37 °C, 5 % CO2 for 2 hours.
Background: Passage across Caco-2 layers is used to estimate intestinal permeability.

[4] abbreviates: mouse liver microsomes, 1 µM, 0.5 mg protein/mL.

Values joined by “and” are separate entries in the source; they are usually repeats but may differ in a detail not shown here. Equal values may be shown once. Read-outs that look alike come from different tables or passages of the source. Marks after values point to notes of the source that are not given here.

For the compound `O=C(O)CC[C@H](NC(=O)Nc1ccc(C(F)(F)F)cc1)C(=O)O` [SSA 1], the CAC in data set [1] (H2O 5.0% EtOH, 298 K) is 19.23 mM and 19 mM. The “ST at CAC” value in data set [1] (H2O 5.0% EtOH, 298 K) is 39 mN m^−1. Moreover, the “Surface tension at CAC” value in data set [1] came out at 38.90 mN/m. Also, the “Hepatic Extraction Ratio (ER)” value in data set [2] (mouse) is listed as under 0.26. Besides, the “Predicted Hepatic CLH” value in data set [2] (mouse) was under 23.07 mL/min/kg. For the same compound, the microsomal CLint at 1 µM in data set [2] (setting [4]) was under 7.5 µL/min/mg. Also, the half-life at 1 µM in data set [2] (setting [4]) is over 185 min. Further, the Remaining percentage was 100.00% in data set [2] (mouse, +Cofactors, 0.5 min); 100.09% in data set [2] (mouse, +Cofactors, 5 min); 98.69% in data set [2] (mouse, +Cofactors, 15 min); 98.11% in data set [2] (mouse, +Cofactors, 30 min); 105.07% in data set [2] (mouse, +Cofactors, 60 min); 100.00% in data set [2] (mouse, -Cofactors, 0.5 min). Also, in data set [2] (mouse, -Cofactors, 60 min), the Remaining percentage is 103.10%. In addition, in data set [2] (mouse), the CLint scaled at 1 µM was under 31 mL/min/kg. In data set [3], the efflux ratio at 2 h was 1.23. The compound further gave a Papp A→B at 2 h in data set [3] of 0.19 ×10⁻⁶ cm/s. In data set [3], this compound returned a basolateral-to-apical permeability (Papp B→A) at 2 h of 0.23 ×10⁻⁶ cm/s. The figures for the recovery at 2 h in data set [3] (read-out: Recovery (%) AP-BL) and in data set [3] (read-out: Recovery (%) BL-AP) were 107% and 89.7%, respectively.

Regarding `O=C(O)CC[C@H](NC(=O)Nc1ccc(C(F)(F)F)cc1)C(=O)O` [SSA 2], the CAC in data set [1] (H2O 5.0% EtOH, 298 K) was 19.84 mM and 20 mM. Also, the “ST at CAC” value in data set [1] (H2O 5.0% EtOH, 298 K) is 37 mN m^−1. In addition, in data set [1], the “Surface tension at CAC” value was determined as 37.13 mN/m. Moreover, the “Hepatic Extraction Ratio (ER)” value in data set [2] (mouse) is under 0.26. Also, in data set [2] (mouse), the “Predicted Hepatic CLH” value was under 23.07 mL/min/kg. For the same compound, the “Scale-up CLint” value in data set [2] (mouse) was under 31.02 mL/min/kg. The “in vitro CLint” value in data set [2] (setting [4]) was under 7.50 µL/min/mg. Moreover, the “in vitro t1/2” value in data set [2] (setting [4]) is listed as over 184.78 min. The Remaining percentage in data set [2] (mouse, +Cofactors, 0.5 min) is recorded as 100.00%; in data set [2] (mouse, +Cofactors, 5 min), 101.97%; in data set [2] (mouse, +Cofactors, 15 min) it was 102.46%; in data set [2] (mouse, +Cofactors, 30 min), 101.55%; in data set [2] (mouse, +Cofactors, 60 min) it was 102.31%; in data set [2] (mouse, -Cofactors, 0.5 min), 100.00%. Also, the Remaining percentage in data set [2] (mouse, -Cofactors, 60 min) was 102.89%.

For the compound `O=C(O)CC[C@@H](NC(=O)Nc1ccc(C(F)(F)F)cc1)C(=O)O` [SSA 3], the CAC in data set [1] (H2O 5.0% EtOH, 298 K, listed as 3) is 17.46 mM and 20 mM. For the same compound, the “Surface tension at CAC” value in data set [1] (listed as 3) is recorded as 38.73 mN/m. The “Hepatic Extraction Ratio (ER)” value in data set [2] (mouse) is listed as under 0.26. Further, the “Predicted Hepatic CLH” value in data set [2] (mouse) is under 23.07 mL/min/kg. In data set [2] (setting [4]), the microsomal CLint at 1 µM was under 7.5 µL/min/mg. In addition, the half-life at 1 µM in data set [2] (setting [4]) was over 185 min. The Remaining percentage was 100.00% in data set [2] (mouse, +Cofactors, 0.5 min); 99.16% in data set [2] (mouse, +Cofactors, 5 min); 100.05% in data set [2] (mouse, +Cofactors, 15 min); 98.24% in data set [2] (mouse, +Cofactors, 30 min); 98.27% in data set [2] (mouse, +Cofactors, 60 min); 100.00% in data set [2] (mouse, -Cofactors, 0.5 min). Moreover, in data set [2] (mouse, -Cofactors, 60 min), the Remaining percentage stood at 93.98%. Besides, the CLint scaled at 1 µM in data set [2] (mouse) was under 31 mL/min/kg. In data set [3], the efflux ratio at 2 h was 2.31. Besides, in data set [3], the Papp A→B at 2 h amounted to 0.1 ×10⁻⁶ cm/s. Besides, the apparent permeability from basolateral to apical (Papp B→A) at 2 h in data set [3] came to 0.24 ×10⁻⁶ cm/s. Besides, the recovery at 2 h is 103% in data set [3] (read-out: Recovery (%) AP-BL) and 87.4% in data set [3] (read-out: Recovery (%) BL-AP).

In the case of `O=C(O)CC[C@H](NC(=O)Nc1ccc(Br)cc1)C(=O)O` [SSA 9], the “CAC (footnote in place of a value)” value in data set [1] (H2O 5.0% EtOH, 298 K) is given as “^c (CAC is >100 mM)”. The “ST at the limit of solubility or 100 mM, whichever concentration is lower” value in data set [1] (H2O 5.0% EtOH, 298 K) is listed as 54 ^d mN m^−1. Moreover, the “Surface tension at CAC” value in data set [1] (listed as 9) stood at 54.44 mN/m. Also, the “Hepatic Extraction Ratio (ER)” value in data set [2] (mouse) is under 0.26. For the same compound, in data set [2] (mouse), the “Predicted Hepatic CLH” value is reported as under 23.07 mL/min/kg. Moreover, the microsomal CLint at 1 µM in data set [2] (setting [4]) was under 7.5 µL/min/mg. Also, the half-life at 1 µM in data set [2] (setting [4]) was over 185 min. Further, the Remaining percentage in data set [2] (mouse, +Cofactors, 0.5 min) worked out at 100.00%; in data set [2] (mouse, +Cofactors, 5 min), 101.88%; in data set [2] (mouse, +Cofactors, 15 min), 100.09%; in data set [2] (mouse, +Cofactors, 30 min), 97.61%; in data set [2] (mouse, +Cofactors, 60 min), 103.16%; in data set [2] (mouse, -Cofactors, 0.5 min), 100.00%. The Remaining percentage in data set [2] (mouse, -Cofactors, 60 min) is listed as 103.83%. The CLint scaled at 1 µM in data set [2] (mouse) was under 31 mL/min/kg. Moreover, the efflux ratio at 2 h in data set [3] was found to be 1.93. Also, the apical-to-basolateral permeability (Papp A→B) at 2 h in data set [3] was 0.17 ×10⁻⁶ cm/s. In addition, the basolateral-to-apical permeability (Papp B→A) at 2 h in data set [3] came to 0.32 ×10⁻⁶ cm/s. The results for the recovery at 2 h in data set [3] (read-out: Recovery (%) AP-BL) and in data set [3] (read-out: Recovery (%) BL-AP) were 115% and 106%, respectively.

For orientation: efflux ratio means a quotient of directional permeabilities that is used to spot active efflux. For orientation: Papp A→B means the apparent permeability from the apical to the basolateral side of a cell layer. The low end stands for slow passage, the high end for fast passage. The term Papp B→A denotes the apparent permeability from the basolateral to the apical side of a cell layer.

(Values after PMC12645191, “Dicarboxylate and dicarboxylic acid appended supramolecular self-associating amphiphiles as antimicrobial agents against high priority bacterial pathogens” (Organic & Biomolecular Chemistry, 2025).)
